Some results are limits rather than exact numbers.

The values below come from US9623014B2 (Entasis Therapeutics Limited, priority 2012, dated 2017).

Assay [1] concerns Klebsiella pneumoniae KPC2. As to the kind of experiment: Synergy with β-lactams (MIC of β-lactam at fixed inhibitor concentration). The class given is cell-based. To be noted: MIC of ceftazidime + inhibitor at fixed 4 ug/ml. As for the experimental part:
(§1) Synergy with β-lactams was assessed against several organisms producing a variety of β-lactamases belonging to different classes. Bush & Jacoby, Updated Functional Classification of β-Lactamases, Antimicrobial Agents and Chemotherapy, 54:969-76 (2010). In the assays, growth inhibitory activity (MIC) was measured using either two-fold dilutions of the partner β-lactam at a fixed concentration of compounds of formula (I). Compounds were prepared in DMSO, and MIC determinations using the compound of formula (I)/β-lactam combinations were done according to the CLSI guidelines. Clinical Laboratory Standards Institute: Methods for Dilution Antimicrobial Susceptability Tests for Bacteria That Grow Aerobically (8th Ed. (2009)) M07-A8. Synergy was defined as a four-fold or more reduction in the MIC of the β-lactam in the presence of the compound of formula (I), compared to the β-lactam alone.

The subject of another assay is S. aureus (MSSA). As to the kind of experiment: MIC, broth microdilution (CLSI). To be noted: compound alone. It is filed as cell-based, Staphylococcus aureus. As for the experimental part:
(§2) Minimum Inhibitory Concentrations (MICs) were determined by the broth microdilution method in accordance with the Clinical and Laboratory Standards Institute (CLSI) guidelines. Clinical Laboratory Standards Institute: Methods for Dilution Antimicrobial Susceptability Tests for Bacteria That Grow Aerobically (8th Ed. (2009)) M07-A8. In brief, organism suspensions were adjusted to a 0.5 McFarland standard and further diluted to yield a final inoculum between 3×10^5 and 7×10^5 colony-forming units (CFU)/mL. Bacterial inocula were made in sterile, cation adjusted Mueller-Hinton Broth (Beckton Dickinson) for either Escherichia coli, Klebsiella pneumoniae, or Pseudomonas aeruginosa. Haemophilus influenzae bacterial inocula were made in sterile, cation adjusted Mueller-Hinton Broth (Beckton Dickinson) containing 0.5% yeast extract (Beckton Dickinson) plus 15 μg/ml Bovine Hematin (Sigma) and 15 μg/ml β-nicotinamide adenine dinucleotide (Sigma). Bacterial inocula were made in sterile, cation adjusted Mueller-Hinton Broth (Beckton Dickinson) for Staphylococcus aureus or sterile, cation adjusted Mueller-Hinton Broth containing 2.5% lysed horse blood (Hema Resource & Supply Inc.) for Streptococcus pneumoniae and Streptococcus pyogenes. An inoculum volume of 100 uL was added to wells (using a Tecan EVO robot) containing 2 uL of DMSO containing 2-fold serial dilutions of drug. […] All inoculated microdilution trays were incubated in ambient air at 35° C. for 18-24 hours. Following incubation, the lowest concentration of the drug that prevented visible growth as read at OD600 nm was recorded as the MIC. Performance of the assay was monitored by the use of laboratory quality-control strains and commercially available control compounds with defined MIC spectrums, in accordance with CLSI guidelines.

Another assay relates to S. aureus (MRSA). The experiment in a line: MIC, broth microdilution (CLSI). It is filed as cell-based, Staphylococcus aureus. To be noted: compound alone. The procedure:
as §2

Assay [2] has as its system Klebsiella pneumoniae KPC2. The experiment in a line: MIC alone against β-lactamase producing strain. The class given is cell-based. Conditions: substance alone. The procedure: as §2
Assay [3] has as its system Pseudomonas aeruginosa PER-1, OXA-10. As to the kind of experiment: MIC alone against β-lactamase producing strain. To be noted: substance alone. The class given is cell-based. The procedure:
as §2

For assay [4] the test system is unchanged. As to the kind of experiment: Synergy with β-lactams (MIC of β-lactam at fixed inhibitor concentration). It is filed as cell-based. Conditions: MIC of ceftazidime + inhibitor at fixed 4 ug/ml. As for the experimental part: as §1
The subject of a further assay is Streptococcus pyogenes. The experiment in a line: MIC, broth microdilution (CLSI). To be noted: compound alone. It is filed as cell-based. The procedure: as §2
In another assay the test system is Pseudomonas aeruginosa. As to the kind of experiment: MIC, broth microdilution (CLSI). It is filed as cell-based. Conditions: compound alone. As for the experimental part: as §2
A further assay concerns Klebsiella pneumoniae. As to the kind of experiment: MIC, broth microdilution (CLSI). The class given is cell-based. To be noted: compound alone. The procedure:
as §2

Another assay concerns Haemophilus influenzae. As to the kind of experiment: MIC, broth microdilution (CLSI). Conditions: compound alone. It is filed as cell-based. The procedure:
as §2

For another assay, the system named is Streptococcus pneumoniae. As to the kind of experiment: MIC, broth microdilution (CLSI). The class given is cell-based. To be noted: compound alone. The procedure:
as §2

The test system of the next assay is Escherichia coli. As to the kind of experiment: MIC, broth microdilution (CLSI). The class given is cell-based. Conditions: compound alone. As for the experimental part:
as §2

For assay [5], the system named is Pseudomonas aeruginosa AmpC (second AmpC column). The experiment in a line: MIC alone against β-lactamase producing strain. It is filed as cell-based. Conditions: substance alone, column 4. The procedure:
as §2

In assay [6] the test system is Pseudomonas aeruginosa AmpC (first AmpC column). The experiment in a line: MIC alone against β-lactamase producing strain. It is filed as cell-based. To be noted: substance alone, column 2. The procedure: as §2

On to `CC(=O)NCCC1=C[C@@H](C(N)=O)N2C[C@@H]1N(OS(=O)(=O)[O-])C2=O.[Na+]` [Ex. 25, (2S,5R)-4-(2-acetamidoethyl)-2-carbamol-7-oxo-1,6-diazabicyclo[3.2.1]oct-3-en-6-yl sulfate sodium salt], for which the “MIC Klebsiella pneumoniae KPC2” value in assay [1] is above 8 µM.
Regarding `CC(C)C1=C[C@@H]2CN(C(=O)N2OS(=O)(=O)[O-])[C@@H]1C(N)=O.[Na+]` [Example 11], the “MIC S. aureus (MSSA)” value in the assay on S. aureus (MSSA) worked out at 100 µg/mL. Moreover, in the assay with S. aureus (MRSA), the “MIC S. aureus (MRSA)” value was above 200 µg/mL. In addition, the “MIC Klebsiella pneumoniae KPC2” value is above 16 µg/mL in assay [2] and 1 µM in assay [1]. Further, the entries for the “MIC Pseudomonas aeruginosa PER-1, OXA-10” value in [3] and in assay [4] were above 16 µg/mL and 16 µM, respectively. For the same compound, the “MIC S. pyogenes” value in the assay with Streptococcus pyogenes turned out to be 25 µg/mL. For the same compound, the “MIC P. aeruginosa” value against Pseudomonas aeruginosa was above 200 µg/mL. In the assay with Klebsiella pneumoniae, the “MIC K. pneumon.” value is above 200 µg/mL. In the assay on Haemophilus influenzae, the “MIC H. influenzae” value was above 200 µg/mL. The “MIC S. pneumon.” value against Streptococcus pneumoniae was determined as 25 µg/mL. For the same compound, the “MIC E. coli” value against Escherichia coli was above 200 µg/mL.
Consider `CC1=C[C@@H](CO)N2C[C@@H]1N(OS(=O)(=O)[O-])C2=O.[Na+]` [Example 16, (2S,5R)-2-(hydroxymethyl)-4-methyl-7-oxo-1,6-diazabicyclo[3.2.1]oct-3-en-6-yl hydrogen sulfate Sodium Salt], for which the MIC against S. aureus (MSSA) (Staphylococcus aureus, MSSA) was 100 µg/mL; in the assay on S. aureus (MRSA) (Staphylococcus aureus, MRSA), above 200 µg/mL; in assay [5], above 16 µg/mL; in assay [2] (Klebsiella pneumoniae, KPC2), 8 µg/mL; in assay [3] (Pseudomonas aeruginosa), above 16 µg/mL; in assay [6] it was above 16 µg/mL. Besides, the MIC in the assay with Streptococcus pyogenes (Streptococcus pyogenes, read-out: MIC S. pyogenes) was 50 µg/mL; with Pseudomonas aeruginosa (Pseudomonas aeruginosa, read-out: MIC P. aeruginosa), above 200 µg/mL; with Klebsiella pneumoniae (Klebsiella pneumoniae, read-out: MIC K. pneumon.) it was 100 µg/mL; in the assay with Haemophilus influenzae (Haemophilus influenzae, read-out: MIC H. influenzae), 50 µg/mL; with Streptococcus pneumoniae (Streptococcus pneumoniae, read-out: MIC S. pneumon.), 50 µg/mL; against Escherichia coli (Escherichia coli), 100 µg/mL.
